Reference: patent publication US9884832B2 (priority 2011, dated 2018)

Tests used:
[1] = target: AM2 V27A (valine→alanine mutation at residue 27 in the M2 protein) (Influenza A virus, UniProt P0DOF5, V27A); format: cell-based, influenza virus A/Udorn/72; conditions: pH 5.5
[2] = target: AM2 S31N (serine→asparagine mutation at residue 31 in the M2 protein) (Influenza A virus, UniProt P0DOF5, S31N); format: cell-based, influenza virus A/Udorn/72; conditions: pH 5.5

O=C(Oc1ccc(CNC23CC4CC(CC(C4)C2)C3)cc1)C1CC1 [Example 34, Cyclopropanecarboxylic acid 4-(adamantan-1-ylaminomethyl)-phenyl ester]
V27A OOcyte Inhibition at 100 uM (%) [1]: B (key: (A)=31-95%; (B)=0-30%)
S31N OOcyte Inhibition at 100 uM (%) [2]: B (key: (A)=31-95%; (B)=0-30%)
